Source: PMC9519446, “Discovery of an Orally Active Benzoxaborole Prodrug Effective in the Treatment of Chagas Disease in Non-human Primates” (Nature microbiology, 2022)
Where “and” joins values, the source holds several entries; their conditions need not be identical. Equal entries are not always repeated.

Key:
[1] = test system: tdTomato expressing T. cruzi (CL strain); assay: Rapid in vivo assay: footpad infection, single oral dose, fluorescence imaging 2 and 4 dpi (proliferation index);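 for Parasite proliferation index of footpads infected with tdTomato-expressing T. cruzi: single oral dose of 50 mg/kg given at 2 dpi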; parameters: species or system C57BL/6 mice; details: for Fluorescence intensity of the feet of mice infected with tdTomato-expressing T. cruzi: individual feet
Method: Fluorescent intensity of the feet was measured at 2 dpi before compound administration and at 4 dpi in the Maestro in vivo imaging system equipped with the software Maestro 2.1.0 (CRi) as previously described. The proliferation index was estimated as PI=[(T4d – T2d)/(mUnt4d-mUnt2d)]*100; where T4d and T2d are the fluorescence intensity of the feet of the treated animals at days 4 and 2 post-infection respectively; mUnt4d and mUnt2d are the average fluorescence intensity of the feet of the untreated animals at 4 and 2 dpi respectively.

[2] = test system: Luciferase-expressing T. cruzi (Brazil strain); assay: In vivo killing time assay (footpad bioluminescence); parameters: species or system C57BL/6 mice; details: for Bioluminiscence signal of the feet of mice infected with Luciferase expresssing T. cruzi: individual feet
Method: C57BL/6 mice were infected with 2.5x10^5 Luciferase-expressing T. cruzi (Brazil strain) in the foot pads, and two days later one oral dose of AN14353 (25 mg/kg) was administered. The bioluminescent signal in the feet after i.p. injection of D-luciferin (PerkinElmer; 250mg/kg) was measured in a Lumina II IVIS imager (PerkinElmer).

NHP bodyweights = assay type: in vivo, rhesus macaques (Macaca mulatta); details: individual treated macaques
Method: Under light-anesthesia/sedation, peripheral blood samples were collected from each animal prior to treatment and at 7 time points following. Blood analysis (CBC and serum chemistry assays) and physical exams to evaluate the health of the study animals were performed on each animal prior to the beginning of the study and also at three time points during the treatment protocol (see Supplementary data).

[3] = test system: T. cruzi (naturally acquired infection); assay: NHP treatment study: hemoculture; assay type: in vivo, rhesus macaques (Macaca mulatta); details: 30 mg/kg/day oral 60 days; all time points after end of treatment
Method: A total of 22 rhesus macaques that had been confirmed to be serologically- and PCR-positive for T. cruzi were utilized in these studies. Using 19 animals in the treatment group provided 85% power of detecting 100% efficacy. […] The remaining three animals on the study were maintained as untreated control animals and received food treats but were not dosed with AN15368.
For hemoculture determinations, peripheral blood from macaques was collected and cultured at 26°C in supplemented liver digest neutralized tryptose medium as described previously. The presence of T. cruzi parasites was assessed every week for 3 months under an inverted microscope. T. cruzi DTU of the macaque isolates was determined as previously described.

[4] = test system: CPSF3 mutant T. cruzi intracellular amastigotes; assay: Intracellular amastigote assay with CPSF3 Asn to His mutant T. cruzi; assay type: cell-based, Trypanosoma cruzi; details: for % of maximum: Fig 5.d, CPSF3-mutant
Method: The in vitro anti-T. cruzi amastiogote activity assay was performed and optimized based on the protocol described previously. The change in tdTomato fluorescence intensity was determined as a measurement of growth over 72 hours of culture. For assaying drug effects on extracellular amastigotes, trypomastigotes were collected from infected Vero cell cultures and converted in acidic media as previously described. Amastigotes (50,000/well) were incubated with 2-fold serial dilutions of compounds for 48 hours. The ATP production was used as an indication of growth in this case, and was measured by ATPlite Luminescence ATP Detection Assay System (PerkinElmer). Both fluorescence and luminescence were read using a BioTek Synergy Hybrid Multi-Mode reader equipped with the software Gene5 v 2.0 (BioTek). The dose-response curve was generated by […] analysis with GraphPad Prism v9.4.0 (GraphPad Software).
To generate CPSF3 mutant, a RNP c omplex was transfected into Brazil tdTomato strain epimastigotes to target the CPSF3 gene (TcBrA4_0124800), together with a repair template that contained the mutation of Asn^231 to His[21]. The sgRNA targeted the ‘[…]’ site. […] The ultimate resistant parasites were validated to have acquired the Asn^231His mutation in CPSF3 via sequencing.

SMILES: Cc1c(C(=O)NC(C(=O)OCc2ccc(F)c(F)c2)C(C)C)ccc2c1B(O)OC2 (centres unmarked) [AN14353]
- Fluorescence intensity of the feet of mice infected with tdTomato-expressing T. cruzi ([1]; 0.8 mg/kg): 1665.8 and 1203.3 and 1103.9 and 2856.3 and 2240.9 and 2906.1 and 796.9 and 2912.6 and 793.9 and 2840.0
- Fluorescence intensity of the feet of mice infected with tdTomato-expressing T. cruzi ([1]; 3.2 mg/kg): 1183.1 and 248.0 and 552.8 and 1244.2 and 574.1 and 807.8 and 439.5 and 1642.2 and 2070.5 and 1949.8
- Fluorescence intensity of the feet of mice infected with tdTomato-expressing T. cruzi ([1]; 12.5 mg/kg): 556.7 and -13.5 and -118.4 and 985.8 and 248.2 and 312.2 and -170.7 and 977.4 and 456.5 and 1102.8
- Fluorescence intensity of the feet of mice infected with tdTomato-expressing T. cruzi ([1]; 25 mg/kg): 916.6 and 1396.9 and 669.0 and 929.6 and 109.0 and 109.7 and 3.9 and 55.6 and 1126.1 and 448.9
- Fluorescence intensity of the feet of mice infected with tdTomato-expressing T. cruzi ([1]; 40 mg/kg): 248.7 and 316.0 and 101.3 and 60.4 and 606.3 and -64.8 and 95.6 and 476.3 and 738.5 and 600.3
- Parasite proliferation index of footpads infected with tdTomato-expressing T. cruzi ([1]; Fig. 3a, individual footpads): 1.9 and 17.1 and 45.9 and 24.7 and 19.1 and 29.9 and -18.9 and -3.0 and 31.4 and 4.1
- Bioluminiscence signal of the feet of mice infected with Luciferase expresssing T. cruzi ([2]; dpi 0): 38900 and 50000 and 58900 and 53200 and 27400 and 49600
- Bioluminiscence signal of the feet of mice infected with Luciferase expresssing T. cruzi ([2]; dpi 6): 16800 and 26800 and 41700 and 19800 and 27400 and 55100
- Bioluminiscence signal of the feet of mice infected with Luciferase expresssing T. cruzi ([2]; dpi 12): 53200 and 26000 and 25400 and 27200 and 20400 and 32200
- Bioluminiscence signal of the feet of mice infected with Luciferase expresssing T. cruzi ([2]; dpi 24): 28700 and 38600 and 17100 and 17600 and 12200 and 16200
- Bioluminiscence signal of the feet of mice infected with Luciferase expresssing T. cruzi ([2]; dpi 30): 38600 and 26900 and 29300 and 28500 and 15800 and 33500
- Bioluminiscence signal of the feet of mice infected with Luciferase expresssing T. cruzi ([2]; dpi 48): 13500 and 15700 and 12600 and 12800 and 9070 and 11900
- Bioluminiscence signal of the feet of mice infected with Luciferase expresssing T. cruzi ([2]; dpi 72): 90400 and 76200 and 47100 and 14600 and 38700 and 41000
- in vivo trypanocidal activity (killing time) ([2]; single oral dose 25 mg/kg): rapid in vivo trypanocidal activity

SMILES: Cc1c(C(=O)N[C@H](C(=O)OCC2CCOCC2)C(C)C)ccc2c1B(O)OC2 [AN15368]
- bodyweight at end of study (remark) (NHP bodyweights): Weighed less at end of study
- Bodyweights (NHP bodyweights; weighing 2017-09-11/12): 6.37 kg and 8.90 kg and 7.40 kg and 5.20 kg and 6.40 kg and 6.70 kg and 7.70 kg and 7.60 kg and 7.10 kg and 6.30 kg and 7.20 kg and 7.30 kg
- Bodyweights (NHP bodyweights; weighing 2017-10-18/19): 7.00 kg and 9.40 kg and 7.50 kg and 5.30 kg and 6.60 kg and 7.10 kg and 8.00 kg and 7.70 kg and 7.20 kg and 6.40 kg
- Bodyweights (NHP bodyweights; weighing 2017-11-16): 7.30 kg and 9.70 kg and 7.70 kg and 5.50 kg and 6.90 kg and 8.30 kg and 7.00 kg and 6.70 kg and 7.90 kg
- Bodyweights (NHP bodyweights; weighing 2017-12-05/06): 7.50 kg and 9.70 kg and 7.80 kg and 5.80 kg and 6.90 kg and 7.10 kg and 8.10 kg and 7.00 kg and 8.40 kg
- Bodyweights (NHP bodyweights; weighing 2017-12-19/20): 7.50 kg and 9.70 kg and 7.60 kg and 5.50 kg and 6.50 kg and 6.70 kg and 8.10 kg and 7.40 kg and 6.60 kg and 7.90 kg and 7.70 kg
- Bodyweights (NHP bodyweights; weighing 2018-01-08/09): 7.60 kg and 9.80 kg and 7.80 kg and 5.40 kg and 6.60 kg and 6.80 kg and 8.20 kg and 6.90 kg and 7.00 kg
- Bodyweights (NHP bodyweights; weighing 2018-01-22/23): 7.60 kg and 9.95 kg and 7.90 kg and 5.60 kg and 6.80 kg and 7.15 kg and 8.25 kg and 7.65 kg and 6.85 kg and 8.10 kg and 8.20 kg
- Bodyweights (NHP bodyweights; weighing 2018-02-26/27): 8.05 kg and 10.20 kg and 7.90 kg and 5.70 kg and 6.95 kg and 7.25 kg and 8.45 kg and 7.80 kg and 7.30 kg and 8.35 kg and 8.25 kg
- Bodyweights (NHP bodyweights; weighing 2018-03-26/27): 8.00 kg and 10.15 kg and 5.75 kg and 7.00 kg and 7.55 kg and 8.65 kg and 7.85 kg and 6.95 kg and 7.50 kg and 8.20 kg and 8.75 kg
- Bodyweights (NHP bodyweights; weighing 2018-04-09/10/11): 7.95 kg and 10.20 kg and 8.10 kg and 5.90 kg and 6.85 kg and 7.15 kg and 8.70 kg
- culture of parasites from blood (in words) [3]: negative
- % of maximum ([4]; 0.10): 3% and 1%
- % of maximum ([4]; 0.40): -6%
- % of maximum ([4]; 0.70): 2% and -5%
- % of maximum ([4]; 1.00): -6% and -2%
- % of maximum ([4]; 1.30): -4% and -2% and 5%
- % of maximum ([4]; -0.51): 97% and 106% and 96%
- % of maximum ([4]; -0.81): 96% and 123% and 105%
- % of maximum ([4]; -1.11): 92% and 97% and 122%
- IC50 ([4]; Trypanosoma cruzi, read-out: CPSF3 mutant IC50): 500 nM
